The source of these data is US4870183A, “Novel amino acid derivatives” (priority 1986, dated 1989).

Like-named read-outs stand apart in the source and are kept apart here.

The target in one experiment is T1, human renin (Homo sapiens, UniProt P00797).
T1 sequence (P00797 67-406): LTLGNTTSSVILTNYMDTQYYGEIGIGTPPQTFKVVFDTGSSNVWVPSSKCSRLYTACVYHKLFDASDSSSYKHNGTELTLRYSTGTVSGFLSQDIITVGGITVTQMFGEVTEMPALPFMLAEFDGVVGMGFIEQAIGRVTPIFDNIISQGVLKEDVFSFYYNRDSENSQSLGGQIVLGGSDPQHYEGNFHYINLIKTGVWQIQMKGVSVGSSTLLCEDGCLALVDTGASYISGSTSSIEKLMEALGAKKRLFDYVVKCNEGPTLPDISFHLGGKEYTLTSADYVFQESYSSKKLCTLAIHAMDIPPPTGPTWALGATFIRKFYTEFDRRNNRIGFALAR
As to the kind of experiment: Inhibitory effect on human renin-sheep renin substrate reaction system in vitro. Format: biochemical. As to the method: Inhibitory effect on human renin-sheep renin substrate reaction system in vitro
The mixture was incubated for 15 minutes on a water bath at 37° C., and the reaction mixture was allowed to stand for 5 minutes on a water bath at 100° C. to stop the reaction. After cooling, 200 μl of the solution was taken up and the amount of angiotensin I produced by the addition of renin was determined by radioimmunoassay using renin riabead kit (DAINABOT).
The inhibitory effect was calculated by the following equation.
As a control, the same procedure as above was carried out by using 50 μl of dimethyl sulfoxide alone in place of the 50 μl of dimethyl sulfoxide solution containing an amino acid compound of the present invention. [formula]

Experiment [1] has as its target T2, renin in human high renin plasma (Homo sapiens, UniProt P00797).
T2 construct: from tissue; host or cells: human high renin plasma
T2 sequence (P00797 67-406): T1 sequence (P00797 67-406)
Briefly: Renin inhibitory effect in a human high renin plasma. Format: biochemical. As to the method: Renin Inhibitory Effect in a Human High Renin Plasma
Two hundred μl of the mixture was placed on an ice bath, at 4° C., and remaining mixture (800 μl) was incubated for 60 minutes at 37° C. on a water bath. Two hundred μl of the incubated remaining mixture was chilled immediately on an ice bath, and the amount (A) of angiotensin I produced was determined by radioimmunoassay using renin riabead kit (DAINABOT).
The amount (B) of angiotensin I in the mixture placed on an ice bath at 4° C. was also determined by radioimmunoassay.
As a control, the same procedure as above was carried out by using 100 μl of dimethyl sulfoxide alone in place of 100 μl of dimethyl sulfoxide solution containing an amino acid compound of the present invention.
The net amount was estimated as the difference between A and B.
The inhibitory effect was calculated by the following equation. [formula]

The mark [2] stands for this setting: human renin-sheep renin substrate system, pH 7.4, 37° C., 15 minutes, read-out: IC50 molar concentration.
The mark [3] stands for this setting: human high renin plasma, pH 7.0, 37° C., 60 minutes, read-out: IC50 molar concentration.

Take `CC(C)OC(=O)C(O)[C@H](CC1CCCCC1)NC(=O)[C@H](Cc1c[nH]cn1)NC(=O)C(Cc1ccccc1C(F)(F)F)Cc1ccccc1C(F)(F)F` (mixture of isomers) [Compound B, (2RS, 3S)-3-{N-[Bis(2-trifluoromethylbenzyl)acetyl]-L-histidyl}amino-4-cyclohexyl-2-hydroxybutyric acid isopropyl ester]: the IC50 at human renin is 0.12 µM; in experiment [1], 1.2 µM.

As to `CC(C)OC(=O)C(O)[C@H](CC1CCCCC1)NC(=O)[C@H](Cc1c[nH]cn1)NC(=O)C(Cc1cccc(F)c1)Cc1cccc(F)c1` (mixture of isomers) [Compound D, (2RS, 3S)-3-{N-[Bis(3-fluorobenzyl)acetyl]-L-histidyl}amino-4-cyclohexyl-2-hydroxybutyric acid isopropyl ester], the IC50 against human renin was 0.018 µM; in experiment [1] it was 0.25 µM.

Turning to `CC(C)OC(=O)C(O)[C@H](CC1CCCCC1)NC(=O)[C@H](Cc1c[nH]cn1)NC(=O)C(Cc1ccccc1)Cc1ccccc1` (mixture of isomers) [Compound E, (2RS, 3S)-3-[N-(dibenzylacetyl)-L-histidyl}amino-4-cyclohexyl-2-hydroxybutyric acid isopropyl ester], the IC50 at human renin amounted to 0.052 µM; in experiment [1], 0.26 µM.

As for `Cc1cccc(C)c1CC(Cc1c(C)cccc1C)C(=O)N[C@@H](Cc1c[nH]cn1)C(=O)N[C@@H](CC1CCCCC1)C(O)C(=O)OC(C)C` (mixture of isomers) [Compound G, (2RS, 3S)-3-{N-[Bis(2,6-dimethylbenzyl)acetyl]-L-histidyl}amino-4-cyclohexyl-2-hydroxybutyric acid isopropyl ester], the figures for the IC50 (at human renin; in experiment [1]) were 0.9 µM and 3.3 µM, respectively.

For the molecule `CC(C)OC(=O)C(O)[C@H](CC1CCCCC1)NC(=O)[C@H](Cc1c[nH]cn1)NC(=O)C(Cc1ccccc1Br)Cc1ccccc1Br` (mixture of isomers) [Compound I, (2RS, 3S)-3-{N-[Bis(2-bromobenzyl)acetyl]-L-histidyl}amino-4-cyclohexyl-2-hydroxybutyric acid isopropyl ester], the IC50 came out at 0.018 µM against human renin and 0.43 µM in experiment [1].

As to `CC(C)OC(=O)C(O)[C@H](CC1CCCCC1)NC(=O)[C@H](Cc1c[nH]cn1)NC(=O)C(Cc1ccc(Cl)cc1)Cc1ccc(Cl)cc1` (mixture of isomers) [Compound J, (2RS, 3S)-3-{N-[Bis(4-chlorobenzyl)acetyl]-L-histidyl}amino-4-cyclohexyl-2-hydroxybutyric acid isopropyl ester], the IC50 was determined as 0.47 µM at human renin and 5.9 µM in experiment [1].

With `O=C(N[C@@H](Cc1c[nH]cn1)C(=O)N[C@@H](CC1CCCCC1)C(O)C(=O)OC1CCCC1)C(Cc1ccccc1)Cc1ccccc1` (mixture of isomers) [Compound K, (2RS, 3S)-3-[N-(dibenzylacetyl)-L-histidyl]amino-4-cyclohexyl-2-hydroxybutyric acid cyclopentyl ester], the IC50 on human renin was 0.018 µM; in experiment [1] it was 0.28 µM.

`CC(C)OC(=O)C(O)[C@H](CC1CCCCC1)NC(=O)[C@H](Cc1c[nH]cn1)NC(=O)C(Cc1cccc2ccccc12)Cc1cccc2ccccc12` (mixture of isomers) [Compound L, (2RS, 3S)-3-{N-[Bis(1-naphthylmethyl)acetyl]-L-histidyl}amino-4-cyclohexyl-2-hydroxybutyric acid isopropyl ester]: the IC50 turned out to be 0.049 µM on human renin and 0.43 µM in experiment [1].

With `Cc1cccc(CC(Cc2cccc(C)c2C)C(=O)N[C@@H](Cc2c[nH]cn2)C(=O)N[C@@H](CC2CCCCC2)C(O)C(=O)OC(C)C)c1C` (mixture of isomers) [Compound M, (2RS, 3S)-3-{N-[Bis(2,3-dimethylbenzyl)acetyl]-L-histidyl}amino-4-cyclohexyl-2-hydroxybutyric acid isopropyl ester], the IC50 was found to be 0.077 µM against human renin and 0.86 µM in experiment [1].

Take `O=C(N[C@@H](Cc1c[nH]cn1)C(=O)N[C@@H](CC1CCCCC1)C(O)C(=O)OC1CCCC1)C(Cc1ccccc1F)Cc1ccccc1F` (mixture of isomers) [Compound N, (2RS, 3S)-3-{N-[Bis(2-fluorobenzyl)acetyl]-L-histidyl}amino-4-cyclohexyl-2-hydroxybutyric acid cyclopentyl ester]: the IC50 was 0.029 µM against human renin and 0.23 µM in experiment [1].

With `Cc1cccc(CC(Cc2cccc(C)c2)C(=O)N[C@@H](Cc2c[nH]cn2)C(=O)N[C@@H](CC2CCCCC2)C(O)C(=O)OC(C)C)c1` (mixture of isomers) [Compound Q, (2RS, 3S)-3-{N-[Bis(3-methylbenzyl)acetyl]-L-histidyl}amino-4-cyclohexyl-2-hydroxybutyric acid isopropyl ester], the IC50 at human renin was found to be 0.06 µM; in experiment [1], 0.54 µM.

For `COc1ccccc1CC(Cc1ccccc1OC)C(=O)N[C@@H](Cc1c[nH]cn1)C(=O)N[C@@H](CC1CCCCC1)C(O)C(=O)OC(C)C` (mixture of isomers) [Compound R, (2RS, 3S)-3-{N-[Bis(2-methoxybenzyl)acetyl]-L-histidyl}amino-4-cyclohexyl-2-hydroxybutyric acid isopropyl ester], the IC50 against human renin was 0.17 µM; in experiment [1], 0.36 µM.

As for `CC(C)OC(=O)C(O)[C@H](CC1CCCCC1)NC(=O)[C@H](Cc1c[nH]cn1)NC(=O)C(Cc1ccccc1C#N)Cc1ccccc1C#N` (mixture of isomers) [Compound T, (2RS, 3S)-3-{N-[Bis(2-cyanobenzyl)acetyl]-L-histidyl}amino-4-cyclohexyl-2-hydroxybutyric acid isopropyl ester], the IC50 against human renin worked out at 0.19 µM; in experiment [1], 0.28 µM.

Turning to `CC(C)OC(=O)C(O)[C@H](CC1CCCCC1)NC(=O)[C@H](Cc1c[nH]cn1)NC(=O)C(Cc1ccc2c(c1)OCO2)Cc1ccc2c(c1)OCO2` (mixture of isomers) [Compound V, (2RS, 3S)-3-{N-[Bis(3,4-methylenedioxybenzyl)acetyl]-L-histidyl}amino-4-cyclohexyl-2-hydroxybutyric acid isopropyl ester], the results for the IC50 (at human renin; in experiment [1]) were 0.91 µM and 2.6 µM, respectively.

Take `Cc1ccccc1CC(Cc1ccccc1C)C(=O)N[C@@H](Cc1c[nH]cn1)C(=O)N[C@@H](CC1CCCCC1)C(O)C(=O)OC(C)C` (mixture of isomers) [Compound W, (2RS, 3S)-3-{N-[Bis(2-methylbenzyl)-acetyl]-L-histidyl}amino-4-cyclohexyl-2-hydroxybutyric acid isopropyl ester]: the figures for the IC50 (against human renin; in experiment [1]) were 0.058 µM and 0.28 µM, respectively.

In the case of `CC(C)CNC(=O)C(O)[C@H](CC1CCCCC1)NC(=O)[C@H](Cc1c[nH]cn1)NC(=O)C(Cc1cccc2c1OCO2)Cc1cccc2c1OCO2` (mixture of isomers) [Compound Y, (2RS, 3S)-3-{N-[Bis(2,3-methylenedioxybenzyl)acetyl]-L-histidyl}amino-4-cyclohexyl-2-hydroxybutyric acid isobutyl amide], the IC50 against human renin is 1.8 µM; in experiment [1] it was 3.4 µM.

Consider `CC(C)OC(=O)C(O)[C@H](CC1CCCCC1)NC(=O)[C@H](Cc1c[nH]cn1)NC(=O)C(Cc1ccc(F)cc1)Cc1ccc(F)cc1` (mixture of isomers) [Compound O, (2RS, 3S)-3-{N-[Bis(4-fouorobenzyl)acetyl]-L-histidyl}amino-4-cyclohexyl-2-hydroxybutyric acid isopropyl ester], for which the IC50 is 0.068 µM on human renin (setting [2]) and 1.2 µM in experiment [1] (setting [3]).

For `CC(C)OC(=O)C(O)[C@H](CC1CCCCC1)NC(=O)[C@H](Cc1c[nH]cn1)NC(=O)C(Cc1ccccc1O)Cc1ccccc1O` (stereo partly drawn) [Compound C, (2RS 3S)-3-{N-[Bis(2-hydroxybenzyl)acetyl]-L-histidyl}amino-4-cyclohexyl-2-hydroxybutyric acid isopropyl ester], the IC50 is 0.18 µM on human renin (setting [2]) and 0.4 µM in experiment [1] (setting [3]).

As for `O=C(N[C@@H](Cc1cnc[nH]1)C(=O)N[C@@H](CC1CCCCC1)C(O)C(=O)OC(CF)CF)C(Cc1ccccc1)Cc1ccccc1` (stereo partly drawn) [Compound P], the IC50 against human renin stood at 0.019 µM; in experiment [1] it was 0.13 µM.

On to “(2RS, 3)-3-{N-[Bis(2-fluorobenzyl)acetyl]-L-histidyl}amino-4-cyclohexyl ester [Compound S]”, for which the IC50 came to 0.062 µM at human renin (setting [2]) and 0.43 µM in experiment [1] (setting [3]).

With “(2RS, 3S)-3-{N-[Bis(2-chlorobenzyl)acetyl]-L-histidyl}amino-4-cyclohexyl-2-hydroxybutyric acid butyric acid isopropyl ester [Compound U]”, the IC50 at human renin (setting [2]) is 0.063 µM; in experiment [1] (setting [3]) it was 0.43 µM.
